Measurements from patent publication US8598182B2, “Insecticidal pyrimidinyl aryl hyrdrazones” (Dow AgroSciences, LLC., priority 2007, dated 2013).

What was measured:
[1] = system: Corn Earworm (Helicoverpa zea); assay: Insecticidal diet-surface test for corn earworm; assay type: in vivo; conditions: second-instar corn earworm, 50 ug/cm2 on diet surface, 5 days after treatment, dead insects of 8
Procedure: (§1) The compounds identified in Table 1 were prepared using the procedures illustrated in the foregoing examples, and the compounds were tested against beet armyworm and corn earworm as follows:
(§2) Insecticidal Test for Corn Earworm (Helicoverpa zea) and Beet Armyworm (Spodoptera exigua).
(§3) To prepare test solution, the test compound was formulated at 2000 ppm solution as 4 mg/2 mL of 9 acetone:1 tap water. 50 μL of the 2000 ppm (equivalent to 50 ug/cm^2 dose on diet surface area) test solution was pipetted upon the surface of 1 mL of lepidopteran diet (Southland Multi-Species Lepidopteran Diet) contained in each of eight wells per insect species (one well=1 replication). A second-instar corn earworm and beet armyworm was placed upon the treated diet in each well once the solvent had air-dried. Trays containing the treated diet and larvae were covered and then held in a growth chamber at 25° C., 50-55% RH, and 16 hr light:8 hr dark for 5 days. Observation were conducted 5 days after treatment and infestation. The number of dead insects of 8 per species per treatment was then determined and the results are given in Table 1 as percent control at a dose of […].
(§4) Keys to the table: Mass spectral data were obtained using liquid chromatography mass spectroscopy (LC-MS). The masses are detected using electrospray ionization (ESI) and reported as Mol Ion (M+H, M−H); AVG LAPHEG 50 refers to activity against beet army worm (Spodoptera exigua) as defined above; AVG HELIZE 50 refers to activity against corn ear worm (Helicoverpa zea) as described above.

[2] = system: Beet Armyworm (Spodoptera exigua); assay: Insecticidal diet-surface test for beet armyworm; assay type: in vivo; conditions: second-instar beet armyworm, 50 ug/cm2 on diet surface, 5 days after treatment, dead insects of 8
Procedure: as §1, §2, §3, §4

In the case of `Fc1ccc(/C=N/Nc2nc(Cl)cc(Nc3cccc(Br)c3)n2)cc1C(F)(F)F` [Compound 52], the “HELIZE 50 (ug/cm2), percent control” value [1] is reported as 75% and the “LAPHEG 50 (ug/cm2), percent control” value [2] is reported as 38%.

For `CN(/N=C/c1ccc(OC(F)(F)C(F)F)cc1)c1nc(Cl)cc(Nc2ccc(F)c(C(F)(F)F)c2)n1` [Compound 58], the “HELIZE 50 (ug/cm2), percent control” value [1] was 100% and the “LAPHEG 50 (ug/cm2), percent control” value [2] was 100%.

`Fc1ccc(Nc2cc(Cl)nc(N/N=C/c3ccc(Cl)cc3)n2)cc1C(F)(F)F` [Compound 11] was tested, and the “HELIZE 50 (ug/cm2), percent control” value [1] was 100% and the “LAPHEG 50 (ug/cm2), percent control” value [2] was 100%.

`Clc1cccc(/C=N/Nc2nc(Cl)cc(Nc3cccc(Cl)c3)n2)c1` [Compound 38] was tested, and the “HELIZE 50 (ug/cm2), percent control” value [1] was 0% and the “LAPHEG 50 (ug/cm2), percent control” value [2] was 25%.

For `FC(F)C(F)(F)Oc1ccc(Nc2cc(Cl)nc(N/N=C/c3cccc(OC(F)(F)C(F)F)c3)n2)cc1` [Compound 7], the “HELIZE 50 (ug/cm2), percent control” value [1] was 25% and the “LAPHEG 50 (ug/cm2), percent control” value [2] was 88%.

For `Clc1ccc(Nc2cc(Cl)nc(N/N=C/c3ccc(N4CCCCC4)cc3)n2)cc1` [Compound 27], the “HELIZE 50 (ug/cm2), percent control” value [1] was 100% and the “LAPHEG 50 (ug/cm2), percent control” value [2] was 38%.

For `CCNCCNc1cc(Nc2ccc(F)c(C(F)(F)F)c2)nc(N/N=C/c2ccc(OC(F)(F)F)cc2)n1` [Compound 65], the “HELIZE 50 (ug/cm2), percent control” value [1] was 100% and the “LAPHEG 50 (ug/cm2), percent control” value [2] was 100%.

`Fc1ccc(Nc2cc(N/N=C/c3ccc(OC(F)(F)C(F)F)cc3)nc(NCc3ccc(Cl)nc3)n2)cc1C(F)(F)F` [Compound 81] was tested, and the “HELIZE 50 (ug/cm2), percent control” value [1] was 100% and the “LAPHEG 50 (ug/cm2), percent control” value [2] was 0%.

In the case of `CCOc1ccc(/C=N/Nc2nc(Cl)cc(Nc3ccc(F)c(C(F)(F)F)c3)n2)cn1` [Compound 67], the “HELIZE 50 (ug/cm2), percent control” value [1] is reported as 100% and the “LAPHEG 50 (ug/cm2), percent control” value [2] is reported as 100%.

For `Clc1ccc(Nc2cc(Cl)nc(N/N=C/c3cccc(Cl)c3)n2)cc1` [Compound 28], the “HELIZE 50 (ug/cm2), percent control” value [1] was 50% and the “LAPHEG 50 (ug/cm2), percent control” value [2] was 50%.

In the case of `Fc1ccc(Nc2nc(Cl)nc(N/N=C/c3ccc(OC(F)(F)F)nc3)c2Cl)cc1C(F)(F)F` [Compound 82], the “HELIZE 50 (ug/cm2), percent control” value [1] is reported as 100% and the “LAPHEG 50 (ug/cm2), percent control” value [2] is reported as 100%.

With `Fc1ccc(Nc2nc(N/N=C/c3ccc(OC(F)(F)C(F)F)cc3)nc(Cl)c2Cl)cc1C(F)(F)F` [Compound 42] the “HELIZE 50 (ug/cm2), percent control” value [1] was 38% and the “LAPHEG 50 (ug/cm2), percent control” value [2] was 38%.

With `FC(F)(F)c1cccc(Nc2cc(C(F)(F)F)nc(N/N=C/c3cccc(Br)c3)n2)c1` [Compound 55] the “HELIZE 50 (ug/cm2), percent control” value [1] was 88% and the “LAPHEG 50 (ug/cm2), percent control” value [2] was 75%.

`N#Cc1ccc(/C=N/Nc2nc(Cl)cc(Nc3cccc(Cl)c3)n2)cc1` [Compound 33] was tested, and the “HELIZE 50 (ug/cm2), percent control” value [1] was 13% and the “LAPHEG 50 (ug/cm2), percent control” value [2] was 13%.

For `COc1ccc(/C=N/Nc2nc(Cl)cc(Nc3ccc(F)c(C(F)(F)F)c3)n2)cc1` [Compound 23], the “HELIZE 50 (ug/cm2), percent control” value [1] was 38% and the “LAPHEG 50 (ug/cm2), percent control” value [2] was 50%.

`FC(F)(F)Oc1ccc(Nc2nccc(N/N=C/c3ccc(C(F)(F)F)cc3)n2)cc1` [Compound 74] was tested, and the “HELIZE 50 (ug/cm2), percent control” value [1] was 100% and the “LAPHEG 50 (ug/cm2), percent control” value [2] was 100%.

With `FC(F)(F)Oc1ccc(/C=N/Nc2nc(Nc3cccc(C(F)(F)F)c3)cc(C(F)(F)F)n2)cc1` [Compound 54] the “HELIZE 50 (ug/cm2), percent control” value [1] was 100% and the “LAPHEG 50 (ug/cm2), percent control” value [2] was 100%.

With `Clc1cccc(Nc2cc(Cl)nc(N/N=C/c3ccc(N4CCCCC4)cc3)n2)c1` [Compound 43] the “HELIZE 50 (ug/cm2), percent control” value [1] was 63% and the “LAPHEG 50 (ug/cm2), percent control” value [2] was 0%.

With `FC(F)C(F)(F)Oc1cccc(Nc2cc(Cl)nc(N/N=C/c3ccc(C(F)(F)F)nc3)n2)c1` [Compound 69] the “HELIZE 50 (ug/cm2), percent control” value [1] was 0% and the “LAPHEG 50 (ug/cm2), percent control” value [2] was 75%.

With `FC(F)(F)c1ccc(/C=N/Nc2nc(Cl)cc(Nc3cccc(Cl)c3)n2)cc1` [Compound 31] the “HELIZE 50 (ug/cm2), percent control” value [1] was 100% and the “LAPHEG 50 (ug/cm2), percent control” value [2] was 100%.

`Fc1ccc(Nc2cc(Cl)nc(N/N=C/c3ccc(Br)nc3)n2)cc1C(F)(F)F` [Compound 66] was tested, and the “HELIZE 50 (ug/cm2), percent control” value [1] was 75% and the “LAPHEG 50 (ug/cm2), percent control” value [2] was 100%.

`COCCNc1cc(Nc2ccc(F)c(C(F)(F)F)c2)nc(N/N=C/c2ccc(OC(F)(F)F)cc2)n1` [Compound 64] was tested, and the “HELIZE 50 (ug/cm2), percent control” value [1] was 100% and the “LAPHEG 50 (ug/cm2), percent control” value [2] was 100%.

`Fc1ccc(Nc2cc(N/N=C/c3ccc(C(F)(F)F)nc3)ncn2)cc1C(F)(F)F` [Compound 86] was tested, and the “HELIZE 50 (ug/cm2), percent control” value [1] was 100% and the “LAPHEG 50 (ug/cm2), percent control” value [2] was 100%.

`Fc1ccc(Nc2cc(Cl)nc(N/N=C/c3cccc(Cl)c3)n2)cc1C(F)(F)F` [Compound 24] was tested, and the “HELIZE 50 (ug/cm2), percent control” value [1] was 100% and the “LAPHEG 50 (ug/cm2), percent control” value [2] was 100%.

`Fc1ccc(/C=N/Nc2nc(Cl)cc(Nc3cccc(Cl)c3)n2)cc1C(F)(F)F` [Compound 51] was tested, and the “HELIZE 50 (ug/cm2), percent control” value [1] was 50% and the “LAPHEG 50 (ug/cm2), percent control” value [2] was 75%.

`FC(F)C(F)(F)Oc1ccc(Nc2cc(Cl)nc(N/N=C/c3ccc(OC(F)(F)F)cc3)n2)cc1` [Compound 6] was tested, and the “HELIZE 50 (ug/cm2), percent control” value [1] was 100% and the “LAPHEG 50 (ug/cm2), percent control” value [2] was 100%.

`Fc1ccc(Nc2nc(N/N=C/c3ccc(OC(F)(F)F)cc3)nc(Cl)c2Cl)cc1C(F)(F)F` [Compound 41] was tested, and the “HELIZE 50 (ug/cm2), percent control” value [1] was 75% and the “LAPHEG 50 (ug/cm2), percent control” value [2] was 0%.

With `Fc1ccc(Nc2cc(Cl)nc(N/N=C/c3ccc(OC(F)(F)F)cc3)n2)cc1C(F)(F)F` [Compound 1, (6-Chloro-2-{N′-[1-(4-trifluoromethoxyphenyl)-methylidene]-hydrazino}-pyrimidin-4-yl)-(4-fluoro-3-trifluoromethylphenyl)amine] the “HELIZE 50 (ug/cm2), percent control” value [1] was 100% and the “LAPHEG 50 (ug/cm2), percent control” value [2] was 100%.

In the case of `FC(F)(F)Oc1ccc(/C=N/Nc2nc(Cl)cc(Nc3cccc(Cl)c3)n2)cc1` [Compound 39], the “HELIZE 50 (ug/cm2), percent control” value [1] is reported as 100% and the “LAPHEG 50 (ug/cm2), percent control” value [2] is reported as 100%.

In the case of `Clc1ccc(/C=N/Nc2nc(Cl)cc(Nc3ccc(Cl)cc3)n2)cc1` [Compound 25], the “HELIZE 50 (ug/cm2), percent control” value [1] is reported as 100% and the “LAPHEG 50 (ug/cm2), percent control” value [2] is reported as 75%.

`Clc1cccc(Nc2cc(Cl)nc(N/N=C/c3ccc(N4CCCC4)cc3)n2)c1` [Compound 44] was tested, and the “HELIZE 50 (ug/cm2), percent control” value [1] was 50% and the “LAPHEG 50 (ug/cm2), percent control” value [2] was 0%.

`Clc1cccc(/C=N/Nc2nc(Cl)cc(Nc3cccc(Br)c3)n2)c1` [Compound 35] was tested, and the “HELIZE 50 (ug/cm2), percent control” value [1] was 25% and the “LAPHEG 50 (ug/cm2), percent control” value [2] was 0%.

In the case of `Fc1ccc(Nc2cc(Cl)nc(N/N=C/c3cccc(OC(F)(F)C(F)F)c3)n2)cc1C(F)(F)F` [Compound 30], the “HELIZE 50 (ug/cm2), percent control” value [1] is reported as 13% and the “LAPHEG 50 (ug/cm2), percent control” value [2] is reported as 100%.

For `OC(c1ccc(Nc2cc(F)nc(NN=Cc3ccc(OC(F)(F)C(F)F)cc3)n2)cc1)(C(F)(F)F)C(F)(F)F` [Compound 22], the “HELIZE 50 (ug/cm2), percent control” value [1] was 100% and the “LAPHEG 50 (ug/cm2), percent control” value [2] was 100%.

With `FC(F)C(F)(F)Oc1ccc(/C=N/Nc2nc(Cl)cc(Nc3ccc(OC(F)(F)C(F)F)cc3)n2)cc1` [Compound 5] the “HELIZE 50 (ug/cm2), percent control” value [1] was 88% and the “LAPHEG 50 (ug/cm2), percent control” value [2] was 100%.

For `Fc1cc(Nc2ccc(F)c(C(F)(F)F)c2)nc(NN=Cc2ccc(OC(F)(F)C(F)F)cc2)n1` [Compound 18], the “HELIZE 50 (ug/cm2), percent control” value [1] was 100% and the “LAPHEG 50 (ug/cm2), percent control” value [2] was 100%.

For `Fc1ccc(Nc2nccc(N/N=C/c3ccc(OC(F)(F)C(F)F)cc3)n2)cc1C(F)(F)F` [Compound 77], the “HELIZE 50 (ug/cm2), percent control” value [1] was 100% and the “LAPHEG 50 (ug/cm2), percent control” value [2] was 100%.

For `Fc1cnc(N/N=C/c2ccc(OC(F)(F)C(F)F)cc2)nc1Nc1ccc(OC(F)(F)F)cc1` [Compound 14], the “HELIZE 50 (ug/cm2), percent control” value [1] was 88% and the “LAPHEG 50 (ug/cm2), percent control” value [2] was 0%.

In the case of `FC(F)C(F)(F)Oc1cccc(Nc2cc(Cl)nc(N/N=C/c3ccc(OC(F)(F)F)cc3)n2)c1` [Compound 47], the “HELIZE 50 (ug/cm2), percent control” value [1] is reported as 100% and the “LAPHEG 50 (ug/cm2), percent control” value [2] is reported as 100%.

For `Fc1ccc(Nc2cc(Cl)nc(N/N=C/c3ccc(OCC(F)(F)F)nc3)n2)cc1C(F)(F)F` [Compound 70], the “HELIZE 50 (ug/cm2), percent control” value [1] was 100% and the “LAPHEG 50 (ug/cm2), percent control” value [2] was 100%.
